In patent publication US20220267270A1, “STING MODULATORS, COMPOSITIONS, AND METHODS OF USE” (University of South Florida, priority 2019, published 2022):

Columns and labels:
[1] = system: STING-induced IRF3 expression; assay: Competition of 335504 with agonist 2,3-cGAMP in THP-1 cells; format: cell-based, human
Source text: FIG. 6 depicts the effect of various concentrations of 335504 and known agonist 2,3-cGAMP on luminescence measured from THP-1 monocytic leukemia cells. […] This effect, however, is not seen at higher concentrations due to the synergistic effect of the compounds on the IFN-β signaling pathway in these cells.

[2] = system: STING pathway (interferon stimulated genes, IRF3 promoter); assay: Luciferase reporter assay in THP1-ISG-Lucia cells
Method: To maintain selection pressure, 10 μg/ml of blasticidin and 100 μg/ml of Zeocin™ was added to the growth medium every other passage.
For compounds, 10 mM stock solution in 100% DMSO was diluted 1:4 with ultrapure Milli Q water. For the positive control, 1 mM stock solution in 100% Milli Q H2O was diluted 3:1 with water. 50 μL of QUANTI-Luc™ luminesence assay reagent (Invivogen) was added after 18-24 h incubation period. Expression of Lucia luciferase was quantified by measuring luminescence from duplicate treatments. Data illustrated were average luminescence changes shown relative to DMSO-treated cells.
For compounds, 10 mM stock solution in 100% DMSO was diluted 1:4 with ultrapure Milli Q water. For the positive control, 1 mM stock solution in 100% Milli Q H2O was diluted 3:1 with water. 50 μL of QUANTI-Luc™ luminesence assay reagent (Invivogen, San Diego, Calif., USA) was added after 18-24 h incubation period. Expression of Lucia luciferase was quantified by measuring luminescence from duplicate treatments. Data illustrated are average luminescence changes shown relative to DMSO-treated cells. A Glowmax luminometer (Promega, Madison, Wis., USA) was used. QUANTI-Luc™ was prepared following the manufacturer's instructions. 10 μl of THP1-Dual™ KI-hSTING-R232 cell culture supernatant was pipetted into each well in a 96-well white (opaque) plate. 50 μl of QUANTI-Luc™ was added to each well. The measurement was then immediately taken using a 4 sec incubation time and integrating over 1 sec.
A luciferase assay utilizing monocytic leukemia THP-1 cells was carried out to determine the upregulation of the IRF3 promoter gene as a downstream indicator of STING pathway activation.
FIG. 4C depicts a plot of luminescence vs. log of concentration of a luciferase assay utilizing monocytic leukemia THP-1 cells that was carried out to determine the regulation of interferon stimulated genes (ISG).

[3] = biological target: His-labeled STING (hSTING) (Homo sapiens, UniProt Q86WV6); assay: Microscale thermophoresis (MST) binding assay; conditions: for direct binding to hSTING by MST: FIG. 4
Chain of His-labeled STING (hSTING) (Q86WV6 153-340 H232R limits assumed): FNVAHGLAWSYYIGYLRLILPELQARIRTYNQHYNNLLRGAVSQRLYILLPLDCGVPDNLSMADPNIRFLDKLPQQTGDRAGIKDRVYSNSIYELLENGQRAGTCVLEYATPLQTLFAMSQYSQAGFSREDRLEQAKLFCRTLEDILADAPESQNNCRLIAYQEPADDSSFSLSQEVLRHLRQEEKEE
Method: Nanotemper Monolith NT.115 labeled thermophoresis machine was used with standard treated capillary tubes using samples comprised of labeled protein and titrations of small molecule in 1×PBS. […] Detection of the protein was performed using the blue detection channel with LED excitation power set to 90% and MST set to high allowing 3 s prior to MST on to check for initial fluorescence differences, 25 s for thermophoresis, and 3 s for regeneration after MST off.

[4] = biological target: His-tagged human STING CDN domain (Homo sapiens, UniProt Q86WV6); assay: Surface Plasmon Resonance (SPR) binding; conditions: steady state
Chain of His-tagged human STING CDN domain (Q86WV6 153-340 H232R limits assumed): as above
Method: SPR was employed for binding measurements using His-tagged human STING CDN domain. A GE Healthcare Biacore T200 was equipped with an Ni-NTA chip. […] The sensorgrams were analyzed using Biacore T200 Software 3.0 (GE Healthcare) and steady state was measured at 4 sec before injection stop, exported into Graphpad, and fit vs concentration using a one site specific binding model to calculate the apparent equilibrium dissociation constant (KD). Where appropriate, kinetics were measured using a 1:1 Langmuir binding model with Rmax set to local to obtain the association rate (Kon), dissociation (Koff), and the KD.

hSTING = hSTING (Homo sapiens, UniProt Q86WV6); conditions: native ligand, literature ITC value used for model validation; read-out: ITC binding energetics (KD); cited from earlier work
Chain of hSTING (Q86WV6 139-379 H232R limits assumed): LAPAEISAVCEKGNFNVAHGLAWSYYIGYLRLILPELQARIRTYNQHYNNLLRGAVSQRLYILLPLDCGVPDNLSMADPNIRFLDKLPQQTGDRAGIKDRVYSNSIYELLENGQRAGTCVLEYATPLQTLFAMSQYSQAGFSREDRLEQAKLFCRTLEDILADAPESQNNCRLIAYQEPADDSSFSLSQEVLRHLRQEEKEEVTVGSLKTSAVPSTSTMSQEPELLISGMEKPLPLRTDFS

SMILES | IC50 ([1]; Homo sapiens, THP-1 monocytic leukemia cells, with agonist 2,3-cGAMP, FIG. 7) | competition with 2,3-cGAMP (luminescence) ([1]; single to double digit concentrations of 335504, FIG. 6) | ISG output (luminescence) vs DMSO blank ([2]; 3 μM, FIG. 2) | effect on cells at higher concentrations ([2]; >20 μM, DMSO percentages increased) | EC50 ([2]; Homo sapiens, THP-1, read-out: luciferase assay EC50) | effect in luciferase assay compared to 2,3-cGAMP ([2]; THP-1 cells) | increase in Luciferase activity compared to the blank ([2]; THP-1 cells, FIG. 4) | direct binding to hSTING by MST [3] | Kd ([3]; rough initial estimate of binding affinity) | Kd [4] | Kd (hSTING)
Cc1c(Cl)cccc1Nc1ncccc1C(=O)OCC(O)CO (stereo not shown) [NSC 335504] | ~4.8 nM | competition of the compound with 2,3cGAMP can be observed | large increase in ISG output | appeared to cause cell death | 29000 ± 1600 nM | significantly lower | 50% | bind to hSTING | 260 ± 66 nM | 430 ± 140 nM | 
Nc1nc2c(ncn2[C@@H]2O[C@@H]3COP(=O)(O)O[C@H]4[C@@H](O)[C@H](n5cnc6c(=O)[nH]c(N)nc65)O[C@@H]4COP(=O)(O)O[C@H]3[C@H]2O)c(=O)[nH]1 [c-di-GMP] |  |  |  |  |  |  |  | binds but with lesser affinity |  | 4800 nM | 1200 nM
